# Measured values published in ChEMBL document CHEMBL4613208, “Isatin derivatives and their anti-bacterial activities” (Eur J Med Chem, 2019).
# Tested on: Escherichia coli
# Assay: Antibacterial activity against Escherichia coli assessed as zone of inhibition at 100 ug/ml
# Assay type: functional
# Details: read-out: IZ
row,Structure (SMILES),zone of inhibition at 100 µg/mL [mm]
1,O=C(COc1ccc(N2C(=O)C(Cl)C2c2ccc(Br)cc2)c2cccnc12)N/N=C1\C(=O)N(CN2CCCCC2)c2ccccc21 (centres undefined),6 to 19
2,COc1ccc(C2C(Cl)C(=O)N2c2ccc(OCC(=O)N/N=C3\C(=O)N(CN4CCCCC4)c4ccccc43)c3ncccc23)cc1 (centres undefined),6 to 19
3,Cc1nc2ccccc2cc1C(=O)N/N=C1\C(=O)Nc2c(Cl)cccc21,6 to 19
4,Cc1nc2ccccc2cc1C(=O)N/N=C1\C(=O)Nc2cccc(Cl)c21,6 to 19
5,O=C(COc1ccc(N2C(=O)C(Cl)C2c2ccccc2)c2cccnc12)N/N=C1\C(=O)N(CN2CCCCC2)c2ccccc21 (centres undefined),6 to 19
6,Cc1nc2ccccc2cc1C(=O)N/N=C1\C(=O)Nc2ccc(F)c(Cl)c21,6 to 19
7,O=C(COc1ccc(N2C(=O)CSC2c2ccc(Cl)cc2)c2cccnc12)N/N=C1\C(=O)N(CN2CCCCC2)c2ccccc21 (centres undefined),6 to 19
8,Cc1nc2ccccc2cc1C(=O)N/N=C1\C(=O)Nc2ccc([N+](=O)[O-])cc21,6 to 19
9,Cc1nc2ccccc2cc1C(=O)N/N=C1\C(=O)Nc2ccccc21,6 to 19
10,CN1CCN(CN2C(=O)/C(=N\NC(=O)COc3ccc(N4C(=O)CSC4c4ccccc4)c4cccnc34)c3ccccc32)CC1 (centres undefined),6 to 19
11,O=C(COc1ccc(N2C(=O)C(Cl)C2c2ccccc2)c2cccnc12)N/N=C1\C(=O)N(CN2CCOCC2)c2ccccc21 (centres undefined),6 to 19
12,O=C(COc1ccc(N2C(=O)CSC2c2ccc(Br)cc2)c2cccnc12)N/N=C1\C(=O)N(CN2CCCCC2)c2ccccc21 (centres undefined),6 to 19
13,O=C(COc1ccc(N2C(=O)CSC2c2ccccc2)c2cccnc12)N/N=C1\C(=O)N(CN2CCOCC2)c2ccccc21 (centres undefined),6 to 19
14,O=C(COc1ccc(N2C(=O)C(Cl)C2c2ccc([N+](=O)[O-])cc2)c2cccnc12)N/N=C1\C(=O)N(CN2CCCCC2)c2ccccc21 (centres undefined),6 to 19
15,Cc1nc2ccccc2cc1C(=O)N/N=C1\C(=O)Nc2c(Br)ccc(Br)c21,6 to 19
16,O=C(COc1ccc(N2C(=O)CSC2c2ccccc2)c2cccnc12)N/N=C1\C(=O)N(CN2CCCCC2)c2ccccc21 (centres undefined),6 to 19

# Tested on: Pseudomonas aeruginosa
# Assay: Antibacterial activity against Pseudomonas aeruginosa assessed as zone of inhibition at 100 ug/ml
# Assay type: functional
# Details: read-out: IZ
row,Structure (SMILES),zone of inhibition at 100 µg/mL [mm]
1,O=C(COc1ccc(N2C(=O)C(Cl)C2c2ccc(Br)cc2)c2cccnc12)N/N=C1\C(=O)N(CN2CCCCC2)c2ccccc21 (centres undefined),6 to 19
2,COc1ccc(C2C(Cl)C(=O)N2c2ccc(OCC(=O)N/N=C3\C(=O)N(CN4CCCCC4)c4ccccc43)c3ncccc23)cc1 (centres undefined),6 to 19
3,Cc1nc2ccccc2cc1C(=O)N/N=C1\C(=O)Nc2c(Cl)cccc21,6 to 19
4,Cc1nc2ccccc2cc1C(=O)N/N=C1\C(=O)Nc2cccc(Cl)c21,6 to 19
5,O=C(COc1ccc(N2C(=O)C(Cl)C2c2ccccc2)c2cccnc12)N/N=C1\C(=O)N(CN2CCCCC2)c2ccccc21 (centres undefined),6 to 19
6,Cc1nc2ccccc2cc1C(=O)N/N=C1\C(=O)Nc2ccc(F)c(Cl)c21,6 to 19
7,O=C(COc1ccc(N2C(=O)CSC2c2ccc(Cl)cc2)c2cccnc12)N/N=C1\C(=O)N(CN2CCCCC2)c2ccccc21 (centres undefined),6 to 19
8,Cc1nc2ccccc2cc1C(=O)N/N=C1\C(=O)Nc2ccc([N+](=O)[O-])cc21,6 to 19
9,Cc1nc2ccccc2cc1C(=O)N/N=C1\C(=O)Nc2ccccc21,6 to 19
10,CN1CCN(CN2C(=O)/C(=N\NC(=O)COc3ccc(N4C(=O)CSC4c4ccccc4)c4cccnc34)c3ccccc32)CC1 (centres undefined),6 to 19
11,O=C(COc1ccc(N2C(=O)C(Cl)C2c2ccccc2)c2cccnc12)N/N=C1\C(=O)N(CN2CCOCC2)c2ccccc21 (centres undefined),6 to 19
12,O=C(COc1ccc(N2C(=O)CSC2c2ccc(Br)cc2)c2cccnc12)N/N=C1\C(=O)N(CN2CCCCC2)c2ccccc21 (centres undefined),6 to 19
13,O=C(COc1ccc(N2C(=O)CSC2c2ccccc2)c2cccnc12)N/N=C1\C(=O)N(CN2CCOCC2)c2ccccc21 (centres undefined),6 to 19
14,O=C(COc1ccc(N2C(=O)C(Cl)C2c2ccc([N+](=O)[O-])cc2)c2cccnc12)N/N=C1\C(=O)N(CN2CCCCC2)c2ccccc21 (centres undefined),6 to 19
15,Cc1nc2ccccc2cc1C(=O)N/N=C1\C(=O)Nc2c(Br)ccc(Br)c21,6 to 19
16,O=C(COc1ccc(N2C(=O)CSC2c2ccccc2)c2cccnc12)N/N=C1\C(=O)N(CN2CCCCC2)c2ccccc21 (centres undefined),6 to 19

# Tested on: Staphylococcus aureus
# Assay: Antibacterial activity against Staphylococcus aureus assessed as zone of inhibition at 100 ug/ml
# Assay type: functional
# Details: read-out: IZ
row,Structure (SMILES),zone of inhibition at 100 µg/mL [mm]
1,O=C(COc1ccc(N2C(=O)C(Cl)C2c2ccc(Br)cc2)c2cccnc12)N/N=C1\C(=O)N(CN2CCCCC2)c2ccccc21 (centres undefined),6 to 19
2,COc1ccc(C2C(Cl)C(=O)N2c2ccc(OCC(=O)N/N=C3\C(=O)N(CN4CCCCC4)c4ccccc43)c3ncccc23)cc1 (centres undefined),6 to 19
3,Cc1nc2ccccc2cc1C(=O)N/N=C1\C(=O)Nc2c(Cl)cccc21,6 to 19
4,Cc1nc2ccccc2cc1C(=O)N/N=C1\C(=O)Nc2cccc(Cl)c21,6 to 19
5,O=C(COc1ccc(N2C(=O)C(Cl)C2c2ccccc2)c2cccnc12)N/N=C1\C(=O)N(CN2CCCCC2)c2ccccc21 (centres undefined),6 to 19
6,Cc1nc2ccccc2cc1C(=O)N/N=C1\C(=O)Nc2ccc(F)c(Cl)c21,6 to 19
7,O=C(COc1ccc(N2C(=O)CSC2c2ccc(Cl)cc2)c2cccnc12)N/N=C1\C(=O)N(CN2CCCCC2)c2ccccc21 (centres undefined),6 to 19
8,Cc1nc2ccccc2cc1C(=O)N/N=C1\C(=O)Nc2ccc([N+](=O)[O-])cc21,6 to 19
9,Cc1nc2ccccc2cc1C(=O)N/N=C1\C(=O)Nc2ccccc21,6 to 19
10,CN1CCN(CN2C(=O)/C(=N\NC(=O)COc3ccc(N4C(=O)CSC4c4ccccc4)c4cccnc34)c3ccccc32)CC1 (centres undefined),6 to 19
11,O=C(COc1ccc(N2C(=O)C(Cl)C2c2ccccc2)c2cccnc12)N/N=C1\C(=O)N(CN2CCOCC2)c2ccccc21 (centres undefined),6 to 19
12,O=C(COc1ccc(N2C(=O)CSC2c2ccc(Br)cc2)c2cccnc12)N/N=C1\C(=O)N(CN2CCCCC2)c2ccccc21 (centres undefined),6 to 19
13,O=C(COc1ccc(N2C(=O)CSC2c2ccccc2)c2cccnc12)N/N=C1\C(=O)N(CN2CCOCC2)c2ccccc21 (centres undefined),6 to 19
14,O=C(COc1ccc(N2C(=O)C(Cl)C2c2ccc([N+](=O)[O-])cc2)c2cccnc12)N/N=C1\C(=O)N(CN2CCCCC2)c2ccccc21 (centres undefined),6 to 19
15,Cc1nc2ccccc2cc1C(=O)N/N=C1\C(=O)Nc2c(Br)ccc(Br)c21,6 to 19
16,O=C(COc1ccc(N2C(=O)CSC2c2ccccc2)c2cccnc12)N/N=C1\C(=O)N(CN2CCCCC2)c2ccccc21 (centres undefined),6 to 19

# Tested on: Bacillus cereus
# Assay: Antibacterial activity against Bacillus cereus assessed as zone of inhibition at 100 ug/ml
# Assay type: functional
# Details: read-out: IZ
row,Structure (SMILES),zone of inhibition at 100 µg/mL [mm]
1,O=C(COc1ccc(N2C(=O)C(Cl)C2c2ccc(Br)cc2)c2cccnc12)N/N=C1\C(=O)N(CN2CCCCC2)c2ccccc21 (centres undefined),6 to 19
2,COc1ccc(C2C(Cl)C(=O)N2c2ccc(OCC(=O)N/N=C3\C(=O)N(CN4CCCCC4)c4ccccc43)c3ncccc23)cc1 (centres undefined),6 to 19
3,Cc1nc2ccccc2cc1C(=O)N/N=C1\C(=O)Nc2c(Cl)cccc21,6 to 19
4,Cc1nc2ccccc2cc1C(=O)N/N=C1\C(=O)Nc2cccc(Cl)c21,6 to 19
5,O=C(COc1ccc(N2C(=O)C(Cl)C2c2ccccc2)c2cccnc12)N/N=C1\C(=O)N(CN2CCCCC2)c2ccccc21 (centres undefined),6 to 19
6,Cc1nc2ccccc2cc1C(=O)N/N=C1\C(=O)Nc2ccc(F)c(Cl)c21,6 to 19
7,O=C(COc1ccc(N2C(=O)CSC2c2ccc(Cl)cc2)c2cccnc12)N/N=C1\C(=O)N(CN2CCCCC2)c2ccccc21 (centres undefined),6 to 19
8,Cc1nc2ccccc2cc1C(=O)N/N=C1\C(=O)Nc2ccc([N+](=O)[O-])cc21,6 to 19
9,Cc1nc2ccccc2cc1C(=O)N/N=C1\C(=O)Nc2ccccc21,6 to 19
10,CN1CCN(CN2C(=O)/C(=N\NC(=O)COc3ccc(N4C(=O)CSC4c4ccccc4)c4cccnc34)c3ccccc32)CC1 (centres undefined),6 to 19
11,O=C(COc1ccc(N2C(=O)C(Cl)C2c2ccccc2)c2cccnc12)N/N=C1\C(=O)N(CN2CCOCC2)c2ccccc21 (centres undefined),6 to 19
12,O=C(COc1ccc(N2C(=O)CSC2c2ccc(Br)cc2)c2cccnc12)N/N=C1\C(=O)N(CN2CCCCC2)c2ccccc21 (centres undefined),6 to 19
13,O=C(COc1ccc(N2C(=O)CSC2c2ccccc2)c2cccnc12)N/N=C1\C(=O)N(CN2CCOCC2)c2ccccc21 (centres undefined),6 to 19
14,O=C(COc1ccc(N2C(=O)C(Cl)C2c2ccc([N+](=O)[O-])cc2)c2cccnc12)N/N=C1\C(=O)N(CN2CCCCC2)c2ccccc21 (centres undefined),6 to 19
15,Cc1nc2ccccc2cc1C(=O)N/N=C1\C(=O)Nc2c(Br)ccc(Br)c21,6 to 19
16,O=C(COc1ccc(N2C(=O)CSC2c2ccccc2)c2cccnc12)N/N=C1\C(=O)N(CN2CCCCC2)c2ccccc21 (centres undefined),6 to 19
